Laboratory results from US20240246964A1 (Arbutus Biopharma Corporation, priority 2021, published 2024).

Experiments:
human PD-L1 = human PD-L1 (Homo sapiens (Human), UniProt Q9NZQ7); assay: T cell activation luciferase reporter cell culture system (T Cell Activation Assay); assay type: cell-based; details: luciferase reporter assay; PD-L1 aAPC/CHO-K1 cells with PD-1 effector Jurkat T cells
[1] = molecular target: PD-L1 His protein / PD-1 Fc protein (Homo sapiens (Human), UniProt Q9NZQ7); assay: HTRF Assay (PD-1/PD-L1 interaction); assay type: binding; details: PD-L1 His 6 nM, PD-1 Fc 6 nM
Chain of PD-L1 His protein / PD-1 Fc protein (Q9NZQ7 19-238): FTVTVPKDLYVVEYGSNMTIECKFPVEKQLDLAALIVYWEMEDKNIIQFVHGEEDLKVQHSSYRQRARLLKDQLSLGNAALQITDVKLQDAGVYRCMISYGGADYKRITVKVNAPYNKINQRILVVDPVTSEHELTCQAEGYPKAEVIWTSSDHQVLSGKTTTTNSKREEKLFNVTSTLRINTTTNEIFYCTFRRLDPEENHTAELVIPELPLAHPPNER

Chain of human PD-L1 (Q9NZQ7 19-290): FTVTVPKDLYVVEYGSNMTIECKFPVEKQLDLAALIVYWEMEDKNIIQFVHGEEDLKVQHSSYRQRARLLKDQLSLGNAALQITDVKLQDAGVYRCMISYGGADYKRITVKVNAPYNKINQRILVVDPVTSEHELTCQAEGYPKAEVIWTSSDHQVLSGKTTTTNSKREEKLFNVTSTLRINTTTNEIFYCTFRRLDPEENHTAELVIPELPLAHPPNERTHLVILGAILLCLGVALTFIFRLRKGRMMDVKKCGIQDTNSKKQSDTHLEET

## COc1nc(-c2cccc(-c3ccnc(-c4ccc5c(CNC6CCC(F)(F)CC6)cn(C)c5c4)c3Cl)c2Cl)ccc1CNC[C@@H]1CCC(=O)N1 [Compound 73, (S)-5-((((6-(2-chloro-3-(3-chloro-2-(3-(((4,4-difluorocyclohexyl)amino)methyl)-1-methyl-1H-indol-6-yl)pyridin-4-yl)phenyl)-2-methoxypyridin-3-yl)methyl)amino)methyl)pyrrolidin-2-one]
Human PD-L1
  EC50: 184 nM
[1]
  IC50: 0.9 nM

## COc1nc(-c2cccc(-c3ccnc(-c4cc5c(=O)n(C)c(CN[C@H]6C[C@](C)(O)C6)nn5c4)c3Cl)c2Cl)cc(Cl)c1CNC[C@@H]1CCC(=O)N1 [Compound 87, 6-(3-chloro-4-(2-chloro-3-(4-chloro-6-methoxy-5-(((((S)-5-oxopyrrolidin-2-yl)methyl)amino)methyl)pyridin-2-yl)phenyl)pyridin-2-yl)-2-((((1r,3r)-3-hydroxy-3-methylcyclobutyl)amino)methyl)-3-methylpyrrolo[2,1-f][1,2,4]triazin-4(3H)-one]
Human PD-L1
  EC50: 312 nM
[1]
  IC50: 3 nM

## COc1nc(-c2cccc(-c3ccnc(-c4cc5c(=O)n(C)c(CNC[C@H](C)O)nn5c4)c3Cl)c2Cl)ccc1CNC[C@@H]1CCC(=O)N1 [Compound 91, 6-(3-chloro-4-(2-chloro-3-(6-methoxy-5-(((((S)-5-oxopyrrolidin-2-yl)methyl)amino)methyl)pyridin-2-yl)phenyl)pyridin-2-yl)-2-((((S)-2-hydroxypropyl)amino)methyl)-3-methylpyrrolo[2,1-f][1,2,4]triazin-4(3H)-one]
Human PD-L1
  EC50: 221 nM
[1]
  IC50: 4.4 nM

## CNCc1cn(C)c2nc(-c3cccc(-c4ccnc(-c5ccc(CNC[C@@H]6CCC(=O)N6)c(OC)c5)c4Cl)c3Cl)ccc12 [Compound 94, (S)-5-(((4-(3-chloro-4-(2-chloro-3-(1-methyl-3-((methylamino)methyl)-1H-pyrrolo[2,3-b]pyridin-6-yl)phenyl)pyridin-2-yl)-2-methoxybenzyl)amino)methyl)pyrrolidin-2-one]
Human PD-L1
  EC50: 47.5 nM
[1]
  IC50: 0.5 nM

## COc1cc(-c2nccc(-c3cccc(-c4ccc5c(CNC6CN(C(C)=O)C6)cn(C)c5n4)c3Cl)c2Cl)ccc1CNC[C@@H]1CCC(=O)N1 [Compound 95, (S)-5-(((4-(4-(3-(3-(((1-acetylazetidin-3-yl)amino)methyl)-1-methyl-1H-pyrrolo[2,3-b]pyridin-6-yl)-2-chlorophenyl)-3-chloropyridin-2-yl)-2-methoxybenzyl)amino)methyl)pyrrolidin-2-one]
Human PD-L1
  EC50: 104 nM
[1]
  IC50: 0.6 nM

## COc1cc(-c2nccc(-c3cccc(-c4ccc5c(CNC6CCC(F)(F)CC6)cn(C)c5n4)c3Cl)c2Cl)ccc1CNC[C@@H]1CCC(=O)N1 [Compound 96, (S)-5-(((4-(3-chloro-4-(2-chloro-3-(3-(((4,4-difluorocyclohexyl)amino)methyl)-1-methyl-1H-pyrrolo[2,3-b]pyridin-6-yl)phenyl)pyridin-2-yl)-2-methoxybenzyl)amino)methyl)pyrrolidin-2-one]
Human PD-L1
  EC50: 230 nM
[1]
  IC50: 0.6 nM

## COc1cc(-c2nccc(-c3cccc(-c4ccc5c(CNCCO)cn(C)c5n4)c3Cl)c2Cl)ccc1CNC[C@@H]1CCC(=O)N1 [Compound 97, (S)-5-(((4-(3-chloro-4-(2-chloro-3-(3-(((2-hydroxyethyl)amino)methyl)-1-methyl-1H-pyrrolo[2,3-b]pyridin-6-yl)phenyl)pyridin-2-yl)-2-methoxybenzyl)amino)methyl)pyrrolidin-2-one]
Human PD-L1
  EC50: 28.3 nM
[1]
  IC50: 0.5 nM

## COc1cc(-c2nccc(-c3cccc(-c4ccc5c(CNC[C@H](C)O)cn(C)c5n4)c3Cl)c2Cl)ccc1CNC[C@@H]1CCC(=O)N1 [Compound 98, (S)-5-(((4-(3-chloro-4-(2-chloro-3-(3-((((S)-2-hydroxypropyl)amino)methyl)-1-methyl-1H-pyrrolo[2,3-b]pyridin-6-yl)phenyl)pyridin-2-yl)-2-methoxybenzyl)amino)methyl)pyrrolidin-2-one]
Human PD-L1
  EC50: 30.5 nM
[1]
  IC50: 0.7 nM

## COc1cc(-c2nccc(-c3cccc(-c4ccc5c(CNCC(C)(C)O)cn(C)c5n4)c3Cl)c2Cl)ccc1CNC[C@@H]1CCC(=O)N1 [Compound 99, (S)-5-(((4-(3-chloro-4-(2-chloro-3-(3-(((2-hydroxy-2-methylpropyl)amino)methyl)-1-methyl-1H-pyrrolo[2,3-b]pyridin-6-yl)phenyl)pyridin-2-yl)-2-methoxybenzyl)amino)methyl)pyrrolidin-2-one]
Human PD-L1
  EC50: 47.8 nM
[1]
  IC50: 0.7 nM

## COCCNCc1cn(C)c2nc(-c3cccc(-c4ccnc(-c5ccc(CNC[C@@H]6CCC(=O)N6)c(OC)c5)c4Cl)c3Cl)ccc12 [Compound 100, (S)-5-(((4-(3-chloro-4-(2-chloro-3-(3-(((2-methoxyethyl)amino)methyl)-1-methyl-1H-pyrrolo[2,3-b]pyridin-6-yl)phenyl)pyridin-2-yl)-2-methoxybenzyl)amino)methyl)pyrrolidin-2-one]
Human PD-L1
  EC50: 59 nM
[1]
  IC50: 0.9 nM

## COc1cc(-c2nccc(-c3cccc(-c4ccc5c(CN(C)CCO)cn(C)c5n4)c3Cl)c2Cl)ccc1CNC[C@@H]1CCC(=O)N1 [Compound 101, (S)-5-(((4-(3-chloro-4-(2-chloro-3-(3-(((2-hydroxyethyl)(methyl)amino)methyl)-1-methyl-1H-pyrrolo[2,3-b]pyridin-6-yl)phenyl)pyridin-2-yl)-2-methoxybenzyl)amino)methyl)pyrrolidin-2-one]
Human PD-L1
  EC50: 31 nM
[1]
  IC50: 0.5 nM

## COc1nc(-c2cccc(-c3ccnc(-c4cc5c(=O)n(C)c(CNC[C@@H]6CCC(=O)N6)nn5c4)c3Cl)c2Cl)ccc1CNC[C@@H]1CCC(=O)N1 [Compound 103, 6-(3-chloro-4-(2-chloro-3-(6-methoxy-5-(((((S)-5-oxopyrrolidin-2-yl)methyl)amino)methyl)pyridin-2-yl)phenyl)pyridin-2-yl)-3-methyl-2-(((((S)-5-oxopyrrolidin-2-yl)methyl)amino)methyl)pyrrolo[2,1-f][1,2,4]triazin-4(3H)-one]
Human PD-L1
  EC50: 304 nM
[1]
  IC50: 0.7 nM

## COc1cc(-c2nccc(-c3cccc(-c4ccc(C5=NCCN5)c(OC)n4)c3Cl)c2Cl)ccc1C1=NCCN1 [Compound 106, 3-chloro-4-(2-chloro-3-(5-(4,5-dihydro-1H-imidazol-2-yl)-6-methoxypyridin-2-yl)phenyl)-2-(4-(4,5-dihydro-1H-imidazol-2-yl)-3-methoxyphenyl)pyridine]
Human PD-L1
  EC50: 123 nM
[1]
  IC50: 1.4 nM

## COc1nc(-c2cccc(-c3ccnc(-c4cc5c(=O)n(C)c(CN6CC(C)(O)C6)nn5c4)c3Cl)c2Cl)ccc1CNC[C@@H]1CCC(=O)N1 [Compound 110, (S)-6-(3-chloro-4-(2-chloro-3-(6-methoxy-5-((((5-oxopyrrolidin-2-yl)methyl)amino)methyl)pyridin-2-yl)phenyl)pyridin-2-yl)-2-((3-hydroxy-3-methylazetidin-1-yl)methyl)-3-methylpyrrolo[2,1-f][1,2,4]triazin-4(3H)-one]
Human PD-L1
  EC50: 60.5 nM
[1]
  IC50: 0.9 nM

## COc1nc(-c2cccc(-c3ccnc(-c4cc5c(=O)n(C)c(CNC(C)C)nn5c4)c3Cl)c2Cl)ccc1CNC[C@@H]1CCC(=O)N1 [Compound 111, (S)-6-(3-chloro-4-(2-chloro-3-(6-methoxy-5-((((5-oxopyrrolidin-2-yl)methyl)amino)methyl)pyridin-2-yl)phenyl)pyridin-2-yl)-2-((isopropylamino)methyl)-3-methylpyrrolo[2,1-f][1,2,4]triazin-4(3H)-one]
Human PD-L1
  EC50: 263 nM
[1]
  IC50: 2.2 nM

## COc1cc(-c2nccc(-c3cccc(-c4ccc(CNC[C@@H]5CCC(=O)N5)c(OC)n4)c3Cl)c2Cl)cc(C)c1CNC[C@H](C)O [Compound 114, (S)-5-((((6-(2-chloro-3-(3-chloro-2-(4-((((S)-2-hydroxypropyl)amino)methyl)-3-methoxy-5-methylphenyl)pyridin-4-yl)phenyl)-2-methoxypyridin-3-yl)methyl)amino)methyl)pyrrolidin-2-one]
Human PD-L1
  EC50: 81.2 nM
[1]
  IC50: 0.9 nM

## COc1cc(-c2nccc(-c3cccc(-c4ccc(CNC[C@@H]5CCC(=O)N5)c(OC)n4)c3Cl)c2Cl)cc(C)c1CNC[C@@H]1CCC(=O)N1 [Compound 115, (S)-5-((((6-(2-chloro-3-(3-chloro-2-(3-methoxy-5-methyl-4-(((((S)-5-oxopyrrolidin-2-yl)methyl)amino)methyl)phenyl)pyridin-4-yl)phenyl)-2-methoxypyridin-3-yl)methyl)amino)methyl)pyrrolidin-2-one]
Human PD-L1
  EC50: 36.3 nM
[1]
  IC50: 1.1 nM

## COc1nc(-c2cccc(-c3ccnc(-c4ccc5c(c4)CNC5)c3Cl)c2Cl)ccc1CNC[C@@H]1CCC(=O)N1 [Compound 116, (S)-5-((((6-(2-chloro-3-(3-chloro-2-(isoindolin-5-yl)pyridin-4-yl)phenyl)-2-methoxypyridin-3-yl)methyl)amino)methyl)pyrrolidin-2-one]
Human PD-L1
  EC50: 64.9 nM
[1]
  IC50: 0.9 nM

## COc1cc(-c2nccc(-c3cccc(-c4ccc(CNC[C@@H]5CCC(=O)N5)c(OC)n4)c3Cl)c2Cl)cc(C)c1CN(C)C[C@@H]1CCC(=O)N1 [Compound 117, (S)-5-((((6-(2-chloro-3-(3-chloro-2-(3-methoxy-5-methyl-4-((methyl(((S)-5-oxopyrrolidin-2-yl)methyl)amino)methyl)phenyl)pyridin-4-yl)phenyl)-2-methoxypyridin-3-yl)methyl)amino)methyl)pyrrolidin-2-one]
Human PD-L1
  EC50: 30.7 nM
[1]
  IC50: 1.3 nM

## COc1cc(-c2nccc(-c3cccc(-c4ccc(CNC[C@@H]5CCC(=O)N5)c(OC)n4)c3Cl)c2Cl)cc(C)c1CN(C)C[C@H](C)O [Compound 118, (S)-5-((((6-(2-chloro-3-(3-chloro-2-(4-((((S)-2-hydroxypropyl)(methyl)amino)methyl)-3-methoxy-5-methylphenyl)pyridin-4-yl)phenyl)-2-methoxypyridin-3-yl)methyl)amino)methyl)pyrrolidin-2-one]
Human PD-L1
  EC50: 44.1 nM
[1]
  IC50: 1.6 nM
